In brackets after ≈: the same amount, converted by molar mass.
Legend:
Bacillus subtilis = assay: Antimicrobial activity, micro broth dilution assay; assay type: cell-based
Protocol: (§1) The antimicrobial activity of selected compounds was determined by micro broth dilution assay.

Pseudomonas aeruginosa = assay: Antimicrobial activity, micro broth dilution assay; assay type: cell-based
Protocol: as §1

Brettanomyces sp = assay: Antimicrobial activity, micro broth dilution assay; assay type: cell-based
Protocol: as §1

Zygosaccharomyces bailii = assay: Antimicrobial activity, micro broth dilution assay; assay type: cell-based
Protocol: as §1

Saccharomyces cerevisiae = assay: Antimicrobial activity, micro broth dilution assay; assay type: cell-based
Protocol: as §1

Neosartorya sp. = assay: Antimicrobial activity, micro broth dilution assay; assay type: cell-based
Protocol: as §1

Staphylococcus aureus = assay: Antimicrobial activity, micro broth dilution assay; assay type: cell-based
Protocol: as §1

[1] = tested on: Aspergillus montevidensis; assay: Antimicrobial activity, micro broth dilution assay; assay type: cell-based
Protocol: as §1

Penicillium chrysogenum = assay: Antimicrobial activity, micro broth dilution assay; assay type: cell-based
Protocol: as §1

Penicillium paneum = assay: Antimicrobial activity, micro broth dilution assay; assay type: cell-based
Protocol: as §1

Byssochlamys nivea = assay: Antimicrobial activity, micro broth dilution assay; assay type: cell-based; details: Paecilomyces niveus
Protocol: as §1

Escherichia coli = assay: Antimicrobial activity, micro broth dilution assay; assay type: cell-based
Protocol: as §1

Aspergillus ruber = assay: Antimicrobial activity, micro broth dilution assay; assay type: cell-based
Protocol: as §1

Penicillium expansum = assay: Antimicrobial activity, micro broth dilution assay; assay type: cell-based
Protocol: as §1

Candida parapsilosis = assay: Antimicrobial activity, micro broth dilution assay; assay type: cell-based; details: Lodderomyces parapsilosis
Protocol: as §1

Penicillium roquefortii = assay: Antimicrobial activity, micro broth dilution assay; assay type: cell-based
Protocol: as §1

Leuconostoc carnosum = assay: Antimicrobial activity, micro broth dilution assay; assay type: cell-based
Protocol: as §1

Latilactobacillus sakei = assay: Antimicrobial activity, micro broth dilution assay; assay type: cell-based
Protocol: as §1

Emulsification index E24 = assay type: physicochemical; details: surfactant solution 100 mg/liter; 2 ml hexadecane to 4 ml aqueous sample; measured 24 h later
Protocol: The emulsification index was determined by using a modification of a method described by Cooper and Goldenberg (APPLIED AND ENVIRONMENTAL MICROBIOLOGY, February 1987. p. 224-229). Surfactant solutions were prepared at 100 mg/liter. Emulsifier activity was measured by adding 2 ml of hexadecane to 4 ml of aqueous sample and vortexing at high speed for 1 min. Measurements were made 24 h later. The emulsion index (E24) was calculated using the equation E24(%)=[(height of emulsion layer)/(total height)]×100. Lutensol […] was used as positive control.

## CC(N)C(O)CCCCCCCCCCCCCCCCC(OC1OC(CO)C(O)C(O)C1O)C(C)O (stereo not drawn) [B]
Bacillus subtilis
  MIC: 250 µg/mL (≈ 467 µM)
Pseudomonas aeruginosa
  MIC: 250 µg/mL (≈ 467 µM)
Brettanomyces sp
  MIC: 125 µg/mL (≈ 233 µM)
Zygosaccharomyces bailii
  MIC: 125 µg/mL (≈ 233 µM)
Saccharomyces cerevisiae
  MIC: 125 µg/mL (≈ 233 µM)
Neosartorya sp.
  MIC: 125 µg/mL (≈ 233 µM)
Staphylococcus aureus
  MIC: 250 µg/mL (≈ 467 µM)
[1]
  MIC: 500 µg/mL (≈ 933 µM)
Penicillium chrysogenum
  MIC: 125 µg/mL (≈ 233 µM)
Penicillium paneum
  MIC: 500 µg/mL (≈ 933 µM)
Byssochlamys nivea
  MIC: 500 µg/mL (≈ 933 µM)
Escherichia coli
  MIC: 600 µg/mL (≈ 1120 µM)
Aspergillus ruber
  MIC: 500 µg/mL (≈ 933 µM)
Penicillium expansum
  MIC: 250 µg/mL (≈ 467 µM)
Candida parapsilosis
  MIC: 250 µg/mL (≈ 467 µM)
Penicillium roquefortii
  MIC: 250 µg/mL (≈ 467 µM)
Leuconostoc carnosum
  MIC: > 500 µg/mL
Latilactobacillus sakei
  MIC: 500 µg/mL (≈ 933 µM)
Emulsification index E24
  E24 index: 99%

## CC(O)C(CCCCCCCCCCCCCCCCC(O)C(C)NCC(=O)O)OC1OC(CO)C(O)C(O)C1O (stereo not drawn) [C]
Emulsification index E24
  E24 index: 100%

## CC(N)C(O)CCCCCCCCCCCCCCC(OC1OC(CO)C(O)C(O)C1O)C(C)O (stereo not drawn) [Compound A]
Bacillus subtilis
  MIC: 250 µg/mL (≈ 492 µM)
Pseudomonas aeruginosa
  MIC: 600 µg/mL (≈ 1180 µM)
Brettanomyces sp
  MIC: 500 µg/mL (≈ 985 µM)
Zygosaccharomyces bailii
  MIC: 125 µg/mL (≈ 246 µM)
Saccharomyces cerevisiae
  MIC: 250 µg/mL (≈ 492 µM)
Neosartorya sp.
  MIC: 500 µg/mL (≈ 985 µM)
Staphylococcus aureus
  MIC: 250 µg/mL (≈ 492 µM)
[1]
  MIC: 250 µg/mL (≈ 492 µM)
Penicillium chrysogenum
  MIC: 125 µg/mL (≈ 246 µM)
Penicillium paneum
  MIC: 250 µg/mL (≈ 492 µM)
Byssochlamys nivea
  MIC: > 500 µg/mL
Escherichia coli
  MIC: 600 µg/mL (≈ 1180 µM)
Aspergillus ruber
  MIC: 125 µg/mL (≈ 246 µM)
Penicillium expansum
  MIC: 250 µg/mL (≈ 492 µM)
Candida parapsilosis
  MIC: 500 µg/mL (≈ 985 µM)
Penicillium roquefortii
  MIC: 125 µg/mL (≈ 246 µM)
Leuconostoc carnosum
  MIC: 500 µg/mL (≈ 985 µM)
Latilactobacillus sakei
  MIC: 125 µg/mL (≈ 246 µM)
Emulsification index E24
  E24 index: 95%

## CC(O)C(CCCCCCCCCCCCCCCCC(O)C(C)NC=O)OC1OC(CO)C(O)C(O)C1O (stereo not drawn) [Compound E]
Emulsification index E24
  E24 index: 65%

## CC(N)C(O)C(O)CCCCCCCCCCCCCCCC(OC1OC(CO)C(O)C(O)C1O)C(C)O (stereo not drawn) [Compound I]
Emulsification index E24
  E24 index: 95%

## CC(O)C(CCCCCCCCCCCCCCCCC(O)C(C)OC1OC(CO)C(O)C(O)C1O)OC1OC(CO)C(O)C(O)C1O (stereo not drawn) [D]
Emulsification index E24
  E24 index: 90%

## CC(O)C(O)CCCCCCCCCCCCCCCCC(OC1OC(CO)C(O)C(O)C1O)C(C)O (stereo not drawn) [F]
Emulsification index E24
  E24 index: 100%

## CC(O)C(CCCCCCCCCCCCCCCCC(O)C(C)NC(=O)CCC(=O)O)OC1OC(CO)C(O)C(O)C1O (stereo not drawn) [H]
Emulsification index E24
  E24 index: 94%

## CC(N)C(O)/C=C/CCCCCCCCCCCCCCC(OC1OC(CO)C(O)C(O)C1O)C(C)O (stereo not drawn) [J]
Emulsification index E24
  E24 index: 96%

— patent publication US20240216248A1, “MICROBIAL GLYCOLIPIDS” (ANALYTICON DISCOVERY GMBH, priority 2021, published 2024)
